Data as given in patent US6492515B2, “4,4-disubstituted-1, 4-dihydro-2H-3, 1-benzoxazin-2-ones useful as HIV reverse transcriptase inhibitors and intermediates and processes for making the same” (Bristol-Myers Squibb Pharma Company, priority 1996, dated 2002).

Legend:
[1] = biological target: HIV-1 reverse transcriptase (Human immunodeficiency virus type 1 group M subtype B, UniProt P04585); assay: Inhibition of HIV reverse transcriptase (statement in background); type: biochemical; details: metabolite of NNRTI from rat, monkey and human microsomes

Row | Structure (SMILES) | melting point | inhibitor of HIV reverse transcriptase [1]
1 | Cc1ccc2c(c1)C(C#CC1CC1)(C(C)C)OC(=O)N2 (racemic) [Example 5, (+/−)-4-Cyclopropylethynyl-4-isopropyl-6-methyl-1,4-dihydro-2H-3,1-benzoxazin-2-one] | 138 to 138.5 °C | 
2 | O=C1Nc2c(F)cc(Cl)cc2C(C#CC2CC2)(C(F)(F)F)O1 (racemic) [Example 4, (+/−)-6-Chloro-4-(cyclopropylethynyl)-8-fluoro-4-(trifluoromethyl)-1,4-dihydro-2H-3,1-benzoxazin-2-one] | 169 to 171 °C | 
3 | O=C1Nc2c(O)cc(Cl)cc2[C@@](C#CC2CC2)(C(F)(F)F)O1 [Example 2, (−)-6-Chloro-4-(cyclopropylethynyl)-8-hydroxy-4-(trifluoromethyl)-1,4-dihydro-2H-3,1-benzoxazin-2-one] |  | potent inhibitor

Continued, in another order:

Row | melting point | Structure (SMILES) | inhibitor of HIV reverse transcriptase [1]
4 | 197 to 200 °C | CC(=O)c1ccc2c(c1)C(C#CC1CC1)(C(F)(F)F)OC(=O)N2 (racemic) [Example 7, (+/−)-6-Acetyl-4-cyclopropylethynyl-4-trifluoromethyl-1,4-dihydro-2H-3,1-benzoxazin-2-one] | 
5 | 185.8 °C | O=C1Nc2ccc(Cl)cc2[C@@](C#Cc2ccccn2)(C(F)(F)F)O1 [Example 23] | 
